Our source for the relative viability values is the supplement of paper PMC10307832.

Holding throughout (assay): relative viability (nuclei count vs DMSO), 5 days (fraction); higher = more cells survive
Compound in assay [1]: CC1=CC=C(C=C1)C(=O)CN2C3=C(CCCC3)SC2=N [Pifithrin_alpha] + COc1cc2c(Oc3ccc(NC(=O)C4(C(=O)Nc5ccc(F)cc5)CC4)cc3F)ccnc2cc1OCCCN1CCOCC1 [Foretinib] (partner 0.25 µM)
An outline of the steps: (§1)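 For relative viability, nuclei counts in treated wells were divided by those in vehicle wells. Lung cancer cell lines had been pin-tool dosed in 1536-well plates the day after seeding and cultured for 5 days, then fixed and stained in one step (final 0.05% Triton X-100, 1% formaldehyde, 1 ug/ml Hoechst) and imaged at 4×. Doses were one drug alone or a fixed anchor-drug dose plus five library-drug doses (not always all listed) in √10 steps, and values are duplicate-plate medians.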

Compound in assay [2]: CC1=CC=C(C=C1)C(=O)CN2C3=C(CCCC3)SC2=N [Pifithrin_alpha] + N=C(N)NC(=N)NCCc1ccccc1 [Phenformin] (partner 250 µM)
An outline of the steps:
as §1

Compound in the assay “Axitinib + Luminespib”: CNC(=O)c1ccccc1Sc1ccc2c(/C=C/c3ccccn3)n[nH]c2c1 [Axitinib] + CCNC(=O)c1noc(-c2cc(C(C)C)c(O)cc2O)c1-c1ccc(CN2CCOCC2)cc1 [Luminespib] (partner 0.01 µM)
In short, it runs like this: as §1

Compound in the assay “Axitinib + Dasatinib”: CNC(=O)c1ccccc1Sc1ccc2c(/C=C/c3ccccn3)n[nH]c2c1 [Axitinib] + Cc1nc(Nc2ncc(C(=O)Nc3c(C)cccc3Cl)s2)cc(N2CCN(CCO)CC2)n1 [Dasatinib] (partner 0.075 µM)
In short, it runs like this:
as §1

For the cell line NCI-H650, the relative viability was 0.996 in assay [1] (first compound 3.162 µM); 1.05 in assay [1] (first compound 10 µM); 0.793 in assay [1] (first compound 31.62 µM); 0.902 in assay [1] (first compound 100 µM); 0.49 in assay [2] (first compound 3.162 µM); 0.454 in assay [2] (first compound 10 µM). The relative viability in assay [2] (first compound 31.62 µM) turned out to be 0.421; in assay [2] (first compound 100 µM), 0.421; with Axitinib + Luminespib (first compound 0.005 µM) it was 0.798; with Axitinib + Luminespib (first compound 0.01581 µM) it was 0.766; in the assay with Axitinib + Luminespib (first compound 0.05 µM), 0.589; with Axitinib + Luminespib (first compound 0.1581 µM), 0.764. The relative viability in the assay with Axitinib + Luminespib (first compound 0.5 µM) was determined as 0.822; in the assay with Axitinib + Dasatinib (first compound 0.005 µM) it was 0.496; with Axitinib + Dasatinib (first compound 0.01581 µM), 0.455; with Axitinib + Dasatinib (first compound 0.05 µM), 0.47; with Axitinib + Dasatinib (first compound 0.1581 µM) it was 0.436; with Axitinib + Dasatinib (first compound 0.5 µM) it was 0.396.
